Experimental findings from patent US20230136562A1, “SPIROUREA DERIVATIVES” (Idorsia Pharmaceuticals Ltd, priority 2020, published 2023) are described below.

Where two headings read alike, the source gives them in different places.

The assay concerns primary neuronal cultures from embryonic rat brains. The experiment in a line: Rat oscillation assay (FLIPR, neuronal calcium oscillations). Type of assay: cell-based. Here is the method:
A) Rat Oscillation Assay:
This assay is a functional phenotypic assay designed to mimic epileptic seizures using primary neuronal cultures from embryonic rat brains, which form a functional neuronal network that generate synchronized intracellular calcium concentration oscillations when cultured at high density in 384-well plate. The epileptic phenotype is induced by incubating the neurons in magnesium-free assay buffer, that results in increased probability of NMDA receptor activation, leading to an increased frequency and amplitude of intracellular calcium oscillations. Once neurons are incubated with the calcium indicator dye Fluo-8 AM (Tebu-bio), neuronal calcium oscillations can be monitored in real time using FLIPR® Tetra (fluorometric plate reader, Molecular Devices). With these recordings, the effect of anti-epileptic drugs can be quantified. The anti-epileptic effect of compounds, which activate directly or indirectly the Kv7 channels can be modulated by the Kv7 channel blocker XE-991. The assay was performed as described previously (Pacico N, Mingorance-Le Meur A. New In Vitro Phenotypic Assay for Epilepsy: Fluorescent Measurement of Synchronized Neuronal Calcium Oscillations. PLoS ONE 9(1) 2014) with modifications described hereafter.
Animal care followed standard procedures in accordance with swiss institutional guidelines. Dissociated neuronal cultures were obtained from cerebral cortices of embryonic Wistar rats at embryonic stage E18 (Charles River). The uterine horns were removed by caesarian surgery from deeply anesthetized rats (Isofurane) and sacrificed by decapitation. The embryos were decapitated by closing forceps. The brains were isolated and dissected one by one in ice-cold PBS (Life Technologies) under optical control using a binocular. Meninges, olfactory bulbs, and basal ganglia were removed. Cortical hemispheres (still including the hippocampus) were cut in small pieces with tweezers and placed on ice in pre-chilled Hibernate-E medium (Life technology). The hemispheres were then incubated in 10 mL of Hibernate-E containing 15 U/mL papain (Worthington) for 25 min at 30° C. with gentle mixing every 10 min. Genomic DNA was then digested by prolonging the incubation during 10 min at 37° C. in presence of 4 U/mL rDNase I (Ambion). The obtained suspension was then centrifuged at 800 g for 5 min and the cell pellet was resuspended in 2 mL Hibernate-E and gently dissociated by pipetting up and down 10 times with a plastic Pasteur pipette resulting in a homogenous cell suspension. This suspension was immediately filtered through a 70 µm cell strainer (MACS® SmartStrainer, Miltenyi), collected in 10 mL Hibernate-E and centrifuged at 800 g for 5 min. The cell pellet was resuspended in Neurobasal medium, supplemented with 2% B-27, 0.5 mM Glutamax-I, 100 U/mL penicillin, 100 µg/mL streptomycin (Life Technologies) and diluted at the final concentration of 300′000 cells/mL. One day before plating the cells, 384-well plates were coated with 25 μL/well of 0.1% poly-L-lysine solution (Sigma), incubated overnight at 37° C., washed two times with sterile distilled water and allowed to dry at room temperature for >2 h. The neurons were seeded at a density of 15′000 cells/well in 50 μL/well in a 384-well black, clear-bottomed plates (Corning) and subsequently maintained in an incubator at 37° C., 5% CO2 and 95% humidity for 8 to 10 days. After 3 and 7 days, 40% of media was renewed under sterile conditions.
Protocol Rat Oscillation Assay
Neurons seeded in the assay plates were washed with Hank's balanced salt solution (HBSS) devoid of Ca^2+ and Mg^2+, supplemented with 20 mM HEPES (Life Technologies) and 2 mM CaCl2 (Sigma), pH 7.4 (hereafter called Assay buffer) using a Biotek EL406 plate washer. Neurons were loaded with 1 μM Fluo-8 AM in Assay buffer for 15 min at 37° C., 5% CO2. […]

Where [1] appears, read: Rattus norvegicus, 20 min, AUC of fluorescence measured 20 min after compound addition, read-out: FLIPR: IC50 [nM] 20 min.
Setting [2] is: Rattus norvegicus, Acute phase, ratio of AUC fluorescence before and after compound addition, read-out: FLIPR: IC50 [nM] acute.

For the compound `COCC1c2cccc(OCC(F)(F)F)c2CCN1C(=O)NC1CC2(CCC2)C1` (racemic) [Example 54, (±)-1-Methoxymethyl-5-(2,2,2-trifluoro-ethoxy)-3,4-dihydro-1H-isoquinoline-2-carboxylic acid spiro[3.3]hept-2-ylamide], the half-inhibitory concentration (IC50) (usually the concentration at which inhibition is half-maximal) came out at 244 nM under setting [1] and 207 nM under setting [2].

Take `O=C(NCc1cccc(C(F)F)c1)NC1CC2(CCC2)C1` [Example 15, 1-(3-Difluoromethyl-benzyl)-3-spiro[3.3]hept-2-yl-urea]: the IC50 came to 126 nM under setting [1] and 124 nM under setting [2].

Regarding `O=C(NCc1cc(F)cc(C(F)(F)F)c1)NC1CC2(CCC2)C1` [Example 18, 1-(3-Fluoro-5-trifluoromethyl-benzyl)-3-spiro[3.3]hept-2-yl-urea], the half-inhibitory concentration (IC50) by setting is: under setting [1], 65 nM; under setting [2], 109 nM.

With `CC(NC(=O)NC1CC2(CCC2)C1)c1cc(Cl)cc(OCC(F)(F)F)c1` (racemic) [Example 33, (±)-1-{1-[3-Chloro-5-(2,2,2-trifluoro-ethoxy)-phenyl]-ethyl}-3-spiro[3.3]hept-2-yl-urea], the 50% inhibitory concentration (IC50) under setting [1] is 65 nM and the concentration for half-maximal inhibition (IC50) under setting [2] came out at 80 nM.

In the case of `O=C(NC1CC2(CCC2)C1)NC(CO)c1cccc(C(F)(F)F)c1` (racemic) [Example 76, (±)-1-[2-Hydroxy-1-(3-trifluoromethyl-phenyl)-ethyl]-3-spiro[3.3]hept-2-yl-urea], the half-inhibitory concentration (IC50) was determined as 17 nM under setting [1] and 19 nM under setting [2].

For `CC(NC(=O)NC1CC2(CCC2)C1)c1cc(OCC(F)(F)F)ccc1Cl` (racemic) [Example 39, (±)-1-{1-[2-Chloro-5-(2,2,2-trifluoro-ethoxy)-phenyl]-ethyl}-3-spiro[3.3]hept-2-yl-urea], the half-maximal inhibitory concentration (IC50) reads like this: under setting [1], 571 nM; under setting [2], 487 nM.

Regarding `Cc1ccc(C(C)NC(=O)NC2CC3(CCC3)C2)cc1OCC(F)(F)F` (racemic) [Example 26, (±)-1-{1-[4-Methyl-3-(2,2,2-trifluoro-ethoxy)-phenyl]-ethyl}-3-spiro[3.3]hept-2-yl-urea], the half-maximal inhibitory concentration (IC50) turned out to be 206 nM under setting [1] and 190 nM under setting [2].

Consider `O=C(NCc1cccc(OC(F)(F)F)c1)NC1CC2(CC2)C1` [Example 156, 1-Spiro[2.3]hex-5-yl-3-(3-trifluoromethoxy-benzyl)-urea], for which the IC50 is 83 nM under setting [1] and 60 nM under setting [2].

With `CC(NC(=O)NC1CC2(CCC2)C1)c1cccc(S(C)(=O)=O)c1` (racemic) [Example 36, (±)-1-[1-(3-Methanesulfonyl-phenyl)-ethyl]-3-spiro[3.3]hept-2-yl-urea], the IC50 is 330 nM under setting [1] and 236 nM under setting [2].

`Cc1nc(OCC(F)(F)F)cc(C(CO)NC(=O)NC2CC3(CC3)C2)n1` (racemic) [Example 123, (±)-1-{2-Hydroxy-1-[2-methyl-6-(2,2,2-trifluoro-ethoxy)-pyrimidin-4-yl]-ethyl}-3-spiro[2.3]hex-5-yl-urea]: the IC50 by setting is: under setting [1], 367 nM; under setting [2], 395 nM.

Consider `CC(NC(=O)NC1CC2(CCC2)C1)c1cccc(OCC(F)(F)F)c1` (racemic) [Example 90, (±)-1-Spiro[3.3]hept-2-yl-3-{1-[3-(2,2,2-trifluoro-ethoxy)-phenyl]-ethyl}-urea], for which the IC50 is 2.7 nM under setting [1] and 4 nM under setting [2].

On to `C[C@@H](NC(=O)NC1CC2(CCC2)C1)c1cccc(OC(F)F)c1` (single isomer, unassigned) [Example 174], for which the IC50 by setting is: under setting [1], 2490 nM; under setting [2], 2870 nM.

In the case of `O=C(NCc1cccc(C(F)(F)F)c1)NC1CC2(C1)CC2(F)F` (stereo not shown) [Example 3, 1-(1,1-Difluoro-spiro[2.3]hex-5-yl)-3-(3-trifluoromethyl-benzyl)-urea], the half-inhibitory concentration (IC50) runs as follows: under setting [1], 186 nM; under setting [2], 122 nM.

Regarding `COc1ccc(OCC(F)(F)F)cc1C(C)NC(=O)NC1CC2(CCC2)C1` (racemic) [Example 40, (±)-1-{1-[2-Methoxy-5-(2,2,2-trifluoro-ethoxy)-phenyl]-ethyl}-3-spiro[3.3]hept-2-yl-urea], the IC50 under setting [1] came to 382 nM and the half-maximal inhibitory concentration (IC50) under setting [2] is 351 nM.

As for `O=C(NCc1cccc(S(F)(F)(F)(F)F)c1)NC1CC2(CCC2)C1` [Example 35, 1-(3-(pentafluoro-λ^6-sulfaneyl)benzyl)-3-(spiro[3.3]heptan-2-yl)urea], the half-maximal inhibitory concentration (IC50) worked out at 24 nM under setting [1] and 22 nM under setting [2].

Consider `O=C(NCc1cc(C(F)(F)F)ccc1O)NC1CC2(CCC2)C1` [Example 38, 1-(2-Hydroxy-5-trifluoromethyl-benzyl)-3-spiro[3.3]hept-2-yl-urea], for which the half-maximal inhibitory concentration (IC50) was found to be 330 nM under setting [1] and 627 nM under setting [2].

As for `CC(C)(O)C(NC(=O)NC1CC2(CCC2)C1)c1cccc(C(F)(F)F)c1` (racemic) [Example 45, (±)-1-[2-Hydroxy-2-methyl-1-(3-trifluoromethyl-phenyl)-propyl]-3-spiro[3.3]hept-2-yl-urea], the IC50 was 628 nM under setting [1] and 549 nM under setting [2].

Consider `CC(NC(=O)NC1CC2(CCC2)C1)c1cccc(OC(F)(F)F)c1` (stereo not shown) [Example 119, 1-Spiro[3.3]hept-2-yl-3-[1-(3-trifluoromethoxy-phenyl)-ethyl]-urea], for which the IC50 under setting [1] came to 12 nM and the IC50 under setting [2] was found to be 10 nM.

Turning to `O=C(NC1CC2(CCC2)C1)N[C@@H](CO)c1cccc(C(F)(F)F)c1` (single isomer, unassigned) [Example 184], the IC50 is, setting by setting: under setting [1], 5.7 nM; under setting [2], 8.8 nM.

Consider `CC(NC(=O)NC1CC2(CCC2)C1)c1cc(F)cc(OCC(F)(F)F)c1` (racemic) [Example 95, (±)-1-{1-[3-Fluoro-5-(2,2,2-trifluoro-ethoxy)-phenyl]-ethyl}-3-spiro[3.3]hept-2-yl-urea], for which the concentration for half-maximal inhibition (IC50) under setting [1] worked out at 48 nM and the IC50 under setting [2] came out at 52 nM.

As to `Cn1nnc(C(NC(=O)NC2CC3(CCC3)C2)c2cccc(C(F)(F)F)c2)n1` (racemic) [Example 164, (±)-1-[(2-Methyl-2H-tetrazol-5-yl)-(3-trifluoromethyl-phenyl)-methyl]-3-spiro[3.3]hept-2-yl-urea], the IC50 runs as follows: under setting [1], 619 nM; under setting [2], 267 nM.

With `CC(Oc1cccc(C2(NC(=O)NC3CC4(CCC4)C3)CC2)c1)C(F)(F)F` (single isomer, unassigned) [Example 170, 1-Spiro[3.3]hept-2-yl-3-{1-[3-(2,2,2-trifluoro-1-methyl-ethoxy)-phenyl]-cyclopropyl}-urea], the IC50 is, setting by setting: (AUC of fluorescence measured 20 min after compound addition, read-out: FLIPR: IC50 [nM] 20 min) 59 nM; (Acute phase, ratio of AUC fluorescence before and after compound addition, read-out: FLIPR: IC50 [nM] acute) 76 nM.

Take `O=C(NCc1cccc(OCC(F)(F)F)c1)NC1CC2(CC2)C1` [Example 157, 1-Spiro[2.3]hex-5-yl-3-[3-(2,2,2-trifluoro-ethoxy)-benzyl]-urea]: the IC50 came out at 156 nM under setting [1] and 74 nM under setting [2].

For `C[C@H](NC(=O)NC1CC2(CCC2)C1)c1cccc(OCC(F)(F)F)c1` (single isomer, unassigned) [Example 176], the concentration for half-maximal inhibition (IC50) by setting is: under setting [1], 4.3 nM; under setting [2], 2.9 nM.

With `COCC(NC(=O)NC1CC2(CC2)C1)c1ccnc(OCC(F)(F)F)c1` (racemic) [Example 154, (±)-1-{2-Methoxy-1-[2-(2,2,2-trifluoro-ethoxy)-pyridin-4-yl]-ethyl}-3-spiro[2.3]hex-5-yl-urea], the half-inhibitory concentration (IC50) runs as follows: under setting [1], 24 nM; under setting [2], 8.1 nM.

Turning to `O=C(NC1CC2(CCC2)C1)NC1(c2ccnc(OCC(F)(F)F)c2)CCOCC1` [Example 49, 1-Spiro[3.3]hept-2-yl-3-{4-[2-(2,2,2-trifluoro-ethoxy)-pyridin-4-yl]-tetrahydro-pyran-4-yl}-urea], the IC50 is 1530 nM under setting [1] and 680 nM under setting [2].
